Assays:
HIV = assay: anti-HIV activity, cellular assay; format: cell-based, human immunodeficiency virus 1 (HIV); conditions: for antiviral activity: in words; for EC50: Human immunodeficiency virus 1, MT2, read-out: EC50, anti-HIV activity
HCV = assay: anti-HCV activity; format: cell-based; conditions: Hepatitis C virus, read-out: EC50, anti-HCV activity
[1] = test system: herpes simplex virus-1 (HSV-1); assay: effect on replication of HSV-1; format: cell-based
HSV-2 = assay: effect on replication of HSV-2; format: cell-based
hepatitis B virus (HBV) = assay: effect on replication of HBV; format: cell-based
MT-2 = assay: cytotoxicity; format: cell-based, human; conditions: MT-2 cellular assay

| Structure (SMILES) | antiviral activity (HIV) | EC50 (HIV) | EC50 (HCV) | further results |
| --- | --- | --- | --- | --- |
| CCCCOc1c2cc(C(=O)Nc3cc(C(=O)O)cc(C(=O)OCc4ccccc4)c3)cc1Cc1cc(C(=O)Nc3cc(C(=O)O)cc(C(=O)OCc4ccccc4)c3)cc(c1OCCCC)Cc1cc(C(=O)Nc3cc(C(=O)O)cc(C(=O)OCc4ccccc4)c3)cc(c1OCCCC)Cc1cc(C(=O)Nc3cc(C(=O)O)cc(C(=O)OCc4ccccc4)c3)cc(c1OCCCC)C2 [Compound 1] | little to no antiviral activity | – | – | – |
| CCCCOc1c2cc(C(=O)Nc3cc(C(=O)O)cc(C(=O)O)c3)cc1Cc1cc(C(=O)Nc3cc(C(=O)O)cc(C(=O)O)c3)cc(c1OCCCC)Cc1cc(C(=O)Nc3cc(C(=O)O)cc(C(=O)O)c3)cc(c1OCCCC)Cc1cc(C(=O)Nc3cc(C(=O)O)cc(C(=O)O)c3)cc(c1OCCCC)C2 [Compound 2] | – | 300 nM | 1800 nM | potency against different laboratory HIV strains (HIV; HIV-IIIB, NL-43, LaiM184V): equally potent; antiviral activity in different cell lines (HIV; MT-2, CEMx174, TZM-bl): antiviral activity was retained in all these cell lines; effect on the replication of HSV-1 [1]: no effect; effect on the replication of HSV-2 (HSV-2): no effect; effect on the replication of HBV (hepatitis B virus (HBV)): no effect |
| CCCCOc1c2cc(C(=O)Nc3cc(C(=O)O)cc(C(=O)NC4CCCCC4)c3)cc1Cc1cc(C(=O)Nc3cc(C(=O)O)cc(C(=O)NC4CCCCC4)c3)cc(c1OCCCC)Cc1cc(C(=O)Nc3cc(C(=O)O)cc(C(=O)NC4CCCCC4)c3)cc(c1OCCCC)Cc1cc(C(=O)Nc3cc(C(=O)O)cc(C(=O)NC4CCCCC4)c3)cc(c1OCCCC)C2 [Compound 3] | little to no antiviral activity | – | – | – |
| CCCCOc1c2cc(C(=O)NCCN)cc1Cc1cc(C(=O)NCCN)cc(c1OCCCC)Cc1cc(C(=O)NCCN)cc(c1OCCCC)Cc1cc(C(=O)NCCN)cc(c1OCCCC)C2 [Compound 7] | lack of antiviral activity | – | – | – |
| O=C(O)c1cc(NC(=O)c2cc3c(O)c(c2)Cc2cc(C(=O)Nc4cc(C(=O)O)cc(C(=O)O)c4)cc(c2O)Cc2cc(C(=O)Nc4cc(C(=O)O)cc(C(=O)O)c4)cc(c2O)Cc2cc(C(=O)Nc4cc(C(=O)O)cc(C(=O)O)c4)cc(c2O)C3)cc(C(=O)O)c1 [Compound 9] | – | 6700 nM | > 50000 nM | – |
| O=C(O)c1cc(NC(=O)c2cc3c(OCc4ccccc4)c(c2)Cc2cc(C(=O)Nc4cc(C(=O)O)cc(C(=O)O)c4)cc(c2OCc2ccccc2)Cc2cc(C(=O)Nc4cc(C(=O)O)cc(C(=O)O)c4)cc(c2OCc2ccccc2)Cc2cc(C(=O)Nc4cc(C(=O)O)cc(C(=O)O)c4)cc(c2OCc2ccccc2)C3)cc(C(=O)O)c1 [Compound 11] | – | 300 nM | 1400 nM | ID50 (toxicity) (MT-2): 18000 nM |
